In patent publication US20240368090A1, “SOLID STATE FORMS OF D[…] PROCESS FOR THEIR PREPARATION” (REDDY’S LABORATORIES LIMITED, priority 2023, published 2024):

Test: physical and chemical stability under standard stability conditions
Assay type: physicochemical
Description: In another aspect of the present disclosure, the crystalline form DP-9 of Daprodustat which is physically & chemically stable under standard stability conditions like 25° C.-60% RH, 40° C.-75% RH and 2-8° C. for at least 3 months.

Measured: physically & chemically stable for at least

O=C(O)CNC(=O)C1C(=O)N(C2CCCCC2)C(=O)N(C2CCCCC2)C1=O [Form DP-9]
at least 3 months: 2-8° C. | 25° C.-60% RH | 40° C.-75% RH
